Publication PMC9122897, “SHR1032, a novel STING agonist, stimulates anti-tumor immunity and directly induces AML apoptosis” (Scientific Reports, 2022)

Legend:
THP1-STING-R232 cells = experiment: CellTiter-Glo cell growth; type: cell-based, human; conditions: Homo sapiens
Description: (§1) (a–d) AML cells were treated with STING agonists and standard of care cytarabine, and cell viability was measured by CellTiter Glo in (a) THP1-STING-R232, (b) THP1-STING-KO, (c) MV-4-11 and (d) MOLM-16. (e) MV-4-11, MOLM-16 and THP1-STING-KO cells were stimulated with 1 µM of SHR1032 for the indicated time points. The amount of pTBK1, total TBK1, pSTING, total STING and α-tubulin was measured by Western blot. pSTING phosphorylated STING. THP1 reporter cells were treated for 24 h with a total of 100 k cells and 150 ul media in each well a 96-well plate. Following the incubation, 20 µl of supernatant was transferred to an opaque 96 well ½ area plate and incubated for 30 s with 50 µl of QUANTI-Luc substrate (InvivoGen) per manufacturer’s instructions. Luminescence signal was measured using Tecan infinite M1000. EC50 values were calculated using non-linear regression analysis of GraphPad Prism. Cell growth was monitored by CellTiter-Glo Luminescent Cell Viability Assay (Promega) per manufacture’s protocol. GI50 values were calculated using non-linear regression analysis of GraphPad Prism. Cell lysates for western blotting were made in RIPA buffer (Sigma) with Halt Protease and Phosphatase Inhibitors (Thermo Scientific). Antibodies against pSTING, TBK1, pTBK1 and tubulin were purchased from Cell Signaling Technologies, and anti-STING was purchased from Protein Tech.

THP1-STING-KO cells = experiment: CellTiter-Glo cell growth; type: cell-based, human
Description: as §1

CCn1nc(C)cc1C(=O)Nc1nc2cc(C(N)=O)cc(OC)c2n1CCC[C@H]1COc2cc(C(N)=O)cc3nc(NC(=O)c4cc(C)nn4CC)n1c23 [SHR1032]
GI50 (THP1-STING-R232 cells): 23 nM | cell growth inhibition (THP1-STING-KO cells): not detectable
